Data from BigSolDB 2.1.

Clc1cc(Cl)c(OCCBr)c(Cl)c1
solubility (mole fraction)
Details | in acetone | in acetonitrile | in ethanol | in isopropanol | in methanol | in n-heptane | in n-propanol
278.1 K | – | – | – | 0.00574 | 0.00356 | – | 0.0098
278.2 K | 0.094 | 0.0146 | 0.00698 | – | – | 0.0388 | –
283.1 K | 0.105 | – | 0.00794 | – | 0.00448 | 0.047 | –
283.2 K | – | 0.0176 | – | 0.00688 | – | – | 0.0105
288.1 K | 0.117 | – | – | – | 0.00563 | 0.057 | –
288.2 K | – | 0.0211 | 0.0086 | 0.00825 | – | – | 0.0113
293.1 K | 0.131 | 0.0253 | 0.00968 | 0.0099 | – | 0.069 | –
293.2 K | – | – | – | – | 0.0071 | – | 0.0121
298.1 K | – | – | 0.0108 | – | – | 0.0839 | 0.013
298.2 K | 0.146 | 0.0304 | – | 0.0118 | 0.00892 | – | –
303.1 K | – | 0.0364 | 0.012 | – | – | – | –
303.2 K | 0.163 | – | – | 0.0142 | 0.0112 | 0.102 | 0.014
308.1 K | – | – | – | – | 0.0141 | – | 0.0151
308.2 K | 0.182 | 0.0437 | 0.0134 | 0.017 | – | 0.123 | –
313.1 K | 0.203 | – | – | 0.0204 | – | 0.15 | –
313.2 K | – | 0.0525 | 0.0149 | – | 0.0177 | – | 0.0162
318.1 K | – | – | 0.0166 | 0.0245 | – | – | 0.0174
318.2 K | 0.226 | 0.063 | – | – | 0.0223 | 0.182 | –
323.1 K | – | – | – | – | 0.0281 | 0.22 | –
323.2 K | 0.253 | 0.076 | 0.0186 | 0.0294 | – | – | 0.0187
